Results from patent publication US20230373974A1, “MODULATORS OF CYSTIC FIBROSIS TRANSMEMBRANE CONDUCTANCE REGULATOR” (VERTEX PHARMACEUTICALS INCORPORATED, priority 2020, published 2023).

What was measured:
CFTR = CFTR (Homo sapiens, UniProt P13569); assay: standard Ussing Chamber Assay for CFTR potentiator activity; format: cell-based
[1] = target: CFTR-mediated chloride transport in human intestinal epithelial enteroid cells (Homo sapiens, UniProt P13569); assay: Enteroid assay: membrane potential dye assay (Enteroid Assay A or B); format: cell-based; conditions: for Ent. Max Activity (%): chloride transport as percentage of triple combination control (% Activity)
Description: Base medium (ADF+++) consisted of Advanced DMEM/Ham's F12, 2 mM Glutamax, 10 mM HEPES, […] penicillin/streptomycin.
Intestinal enteroid maintenance medium (IEMM) consisted of ADF+++, 1×B27 supplement, 1×N2 supplement, 1.25 mM N-acetyl cysteine, 10 mM Nicotinamide, 50 ng/mL hEGF, 10 nM Gastrin, 1 μg/mL hR-spondin-1, 100 ng/mL hNoggin, TGF-b type 1 inhibitor A-83-01, 100 μg/mL Primocin, 10 μM P38 MAPK inhibitor SB202190.
Bath 1 Buffer consisted of 1 mM MgCl2, 160 mM NaCl, 4.5 mM KCl, 10 mM HEPES, 10 mM Glucose, 2 mM CaCl2).
Chloride Free Buffer consisted of 1 mM Magnesium Gluconate, 2 mM Calcium Gluconate, 4.5 mM Potassium Gluconate, 160 mM Sodium Gluconate, 10 mM HEPES, 10 mM Glucose.
Bath1 Dye Solution consisted of Bath 1 Buffer, 0.04% Pluronic F127, 20 μM Methyl Oxonol, 30 μM CaCCinh-A01, 30 μM Chicago Sky Blue.
Chloride Free Dye Solution consisted of Chloride Free Buffer, 0.04% Pluronic F127, 20 μM Methyl Oxonol, 30 μM CaCCinh-A01, 30 μM Chicago Sky Blue.
Chloride Free Dye Stimulation Solution consisted of Chloride Free Dye Solution, 10 μM forskolin, 100 μM IBMX, and 300 nM Compound III.
Human intestinal epithelial enteroid cells were obtained from the Hubrecht Institute for Developmental Biology and Stem Cell Research, Utrecht, The Netherlands and expanded in T-Flasks as previously described (Dekkers J F, Wiegerinck C L, de Jonge H R, Bronsveld I, Janssens H M, de Winter-de Groot K M, Brandsma A M, de Jong N W M, Bijvelds M J C, Scholte B J, Nieuwenhuis E E S, van den Brink S, Clevers H, van der Ent C K, Middendorp S and M Beekman J M. A functional CFTR assay using primary cystic fibrosis intestinal organoids. Nat Med. 2013 July; 19(7):939-45).
3. Enteroid Cell Harvesting and Seeding […]
Enteroid cells were incubated with test compound in IEMM for 18-24 hours at 37° C., 95% humidity and 5% CO2. […] Chloride transport was initiated by addition of Chloride Free Dye Stimulation Solution and the fluorescence signal was read for 15 min. […] Chloride transport was then expressed as a percentage of the chloride transport following treatment with 3 μM (S)—N-((6-aminopyridin-2-yl)sulfonyl)-6-(3-fluoro-5-isobutoxyphenyl)-2-(2,2,4-trimethylpyrrolidin-1-yl)nicotinamide, 3 μM (R)-1-(2,2-difluorobenzo[d][1,3]dioxol-5-yl)-N-(1-(2,3-dihydroxypropyl)-6-fluoro-2-(1-hydroxy-2-methylpropan-2-yl)-1H-indol-5-yl)cyclopropanecarboxamide and 300 nM acute N-[2,4-bis(1,1-dimethylethyl)-5-hydroxyphenyl]-1,4-dihydro-4-oxoquinoline-3-carboxamide triple combination control (% Activity). […]
Enteroid cells were incubated with test compound in IEMM for 18-24 hours at 37° C., 95% humidity and 5% CO2. […] Chloride transport was initiated by addition of Chloride Free Dye Stimulation Solution and the fluorescence signal was read for 15 min. […]

F508del in NIH 3T3 cells = target: T1, F508del in NIH 3T3 cells (Homo sapiens, UniProt P13569, DEL508-508); assay: 3T3 assay: membrane potential optical assay for F508del correction; format: cell-based, mouse; conditions: F508del NIH 3T3 cells, incubated with compound 18-24 hours at 37° C., forskolin activation
T1 construct: expressed in transfected cells
Description: Membrane Potential Optical Methods for Assaying F508del Modulation Properties of Compounds The assay utilizes fluorescent voltage sensing dyes to measure changes in membrane potential using a fluorescent plate reader (e.g., FLIPR III, Molecular Devices, Inc.) as a readout for increase in functional F508del in NIH 3T3 cells. The driving force for the response is the creation of a chloride ion gradient in conjunction with channel activation by a single liquid addition step after the cells have previously been treated with compounds and subsequently loaded with a voltage sensing dye. 2. Identification of Corrector Compounds To identify correctors of F508del, a single-addition HTS assay format was developed. This HTS assay utilizes fluorescent voltage sensing dyes to measure changes in membrane potential on the FLIPR III as a measurement for increase in gating (conductance) of F508del in F508del NIH 3T3 cells. The F508del NIH 3T3 cell cultures were incubated with the corrector compounds at a range of concentrations for 18-24 hours at 37° C., and subsequently loaded with a redistribution dye. The driving force for the response is a Cl^− ion gradient in conjunction with channel activation with forskolin in a single liquid addition step using a fluorescent plate reader such as FLIPR III. […] Solutions […] Chloride-free bath solution: Chloride salts in Bath Solution #1 (above) are substituted with gluconate salts. 4. Cell Culture NIH3T3 mouse fibroblasts stably expressing F508del are used for optical measurements of membrane potential. The cells are maintained at 37° C. in 5% CO2 and 90% humidity in Dulbecco's modified Eagle's medium supplemented with 2 mM glutamine, 10% fetal bovine serum, 1×NEAA, b-ME, 1×pen/strep, and 25 mM HEPES in 175 cm^2 culture flasks. For all optical assays, the cells were seeded at ˜20,000/well in 384-well Matrigel-coated plates. For the correction assays, the cells are cultured at 37° C. with and without compounds for 16-24 hours.

Sequence of CFTR-mediated chloride transport in human intestinal epithelial enteroid cells (P13569 whole entry): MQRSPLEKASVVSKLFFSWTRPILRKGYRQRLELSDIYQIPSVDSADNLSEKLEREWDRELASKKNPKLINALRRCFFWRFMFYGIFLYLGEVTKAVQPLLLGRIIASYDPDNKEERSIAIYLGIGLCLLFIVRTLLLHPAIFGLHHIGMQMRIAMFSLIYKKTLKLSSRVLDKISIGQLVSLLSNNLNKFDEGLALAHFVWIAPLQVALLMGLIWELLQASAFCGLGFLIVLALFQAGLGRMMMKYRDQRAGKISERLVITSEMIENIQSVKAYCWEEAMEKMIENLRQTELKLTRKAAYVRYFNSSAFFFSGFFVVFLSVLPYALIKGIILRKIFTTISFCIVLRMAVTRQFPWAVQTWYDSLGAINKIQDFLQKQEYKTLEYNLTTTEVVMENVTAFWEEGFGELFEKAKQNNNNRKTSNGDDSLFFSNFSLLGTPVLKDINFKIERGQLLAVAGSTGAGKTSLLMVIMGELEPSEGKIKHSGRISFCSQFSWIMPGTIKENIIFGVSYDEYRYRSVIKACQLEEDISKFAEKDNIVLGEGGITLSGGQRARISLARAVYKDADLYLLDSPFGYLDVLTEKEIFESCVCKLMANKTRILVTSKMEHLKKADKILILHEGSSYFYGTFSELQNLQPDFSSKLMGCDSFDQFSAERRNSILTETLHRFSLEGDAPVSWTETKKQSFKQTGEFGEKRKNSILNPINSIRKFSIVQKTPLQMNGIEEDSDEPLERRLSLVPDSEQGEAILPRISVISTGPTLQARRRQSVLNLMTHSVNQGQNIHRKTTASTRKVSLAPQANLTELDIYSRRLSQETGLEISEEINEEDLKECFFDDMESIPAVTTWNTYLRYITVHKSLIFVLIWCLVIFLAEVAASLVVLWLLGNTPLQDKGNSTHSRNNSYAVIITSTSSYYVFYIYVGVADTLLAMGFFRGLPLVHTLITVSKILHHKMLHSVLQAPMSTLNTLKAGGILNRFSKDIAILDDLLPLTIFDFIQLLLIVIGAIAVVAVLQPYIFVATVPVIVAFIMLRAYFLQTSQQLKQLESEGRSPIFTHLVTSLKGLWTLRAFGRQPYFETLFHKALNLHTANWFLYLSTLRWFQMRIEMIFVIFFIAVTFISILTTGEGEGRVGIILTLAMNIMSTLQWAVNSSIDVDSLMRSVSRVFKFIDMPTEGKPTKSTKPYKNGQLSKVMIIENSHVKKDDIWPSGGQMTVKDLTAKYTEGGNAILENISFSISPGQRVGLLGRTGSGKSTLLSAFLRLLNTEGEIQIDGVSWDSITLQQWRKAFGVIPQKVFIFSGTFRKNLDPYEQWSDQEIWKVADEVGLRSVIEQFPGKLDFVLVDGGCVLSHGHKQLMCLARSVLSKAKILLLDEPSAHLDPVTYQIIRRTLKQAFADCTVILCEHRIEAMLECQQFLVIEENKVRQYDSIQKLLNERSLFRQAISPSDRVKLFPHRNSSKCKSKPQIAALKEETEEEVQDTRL
Sequence of CFTR (P13569 whole entry): as above
T1 sequence (P13569 with tags, fused parts or gaps DEL508-508): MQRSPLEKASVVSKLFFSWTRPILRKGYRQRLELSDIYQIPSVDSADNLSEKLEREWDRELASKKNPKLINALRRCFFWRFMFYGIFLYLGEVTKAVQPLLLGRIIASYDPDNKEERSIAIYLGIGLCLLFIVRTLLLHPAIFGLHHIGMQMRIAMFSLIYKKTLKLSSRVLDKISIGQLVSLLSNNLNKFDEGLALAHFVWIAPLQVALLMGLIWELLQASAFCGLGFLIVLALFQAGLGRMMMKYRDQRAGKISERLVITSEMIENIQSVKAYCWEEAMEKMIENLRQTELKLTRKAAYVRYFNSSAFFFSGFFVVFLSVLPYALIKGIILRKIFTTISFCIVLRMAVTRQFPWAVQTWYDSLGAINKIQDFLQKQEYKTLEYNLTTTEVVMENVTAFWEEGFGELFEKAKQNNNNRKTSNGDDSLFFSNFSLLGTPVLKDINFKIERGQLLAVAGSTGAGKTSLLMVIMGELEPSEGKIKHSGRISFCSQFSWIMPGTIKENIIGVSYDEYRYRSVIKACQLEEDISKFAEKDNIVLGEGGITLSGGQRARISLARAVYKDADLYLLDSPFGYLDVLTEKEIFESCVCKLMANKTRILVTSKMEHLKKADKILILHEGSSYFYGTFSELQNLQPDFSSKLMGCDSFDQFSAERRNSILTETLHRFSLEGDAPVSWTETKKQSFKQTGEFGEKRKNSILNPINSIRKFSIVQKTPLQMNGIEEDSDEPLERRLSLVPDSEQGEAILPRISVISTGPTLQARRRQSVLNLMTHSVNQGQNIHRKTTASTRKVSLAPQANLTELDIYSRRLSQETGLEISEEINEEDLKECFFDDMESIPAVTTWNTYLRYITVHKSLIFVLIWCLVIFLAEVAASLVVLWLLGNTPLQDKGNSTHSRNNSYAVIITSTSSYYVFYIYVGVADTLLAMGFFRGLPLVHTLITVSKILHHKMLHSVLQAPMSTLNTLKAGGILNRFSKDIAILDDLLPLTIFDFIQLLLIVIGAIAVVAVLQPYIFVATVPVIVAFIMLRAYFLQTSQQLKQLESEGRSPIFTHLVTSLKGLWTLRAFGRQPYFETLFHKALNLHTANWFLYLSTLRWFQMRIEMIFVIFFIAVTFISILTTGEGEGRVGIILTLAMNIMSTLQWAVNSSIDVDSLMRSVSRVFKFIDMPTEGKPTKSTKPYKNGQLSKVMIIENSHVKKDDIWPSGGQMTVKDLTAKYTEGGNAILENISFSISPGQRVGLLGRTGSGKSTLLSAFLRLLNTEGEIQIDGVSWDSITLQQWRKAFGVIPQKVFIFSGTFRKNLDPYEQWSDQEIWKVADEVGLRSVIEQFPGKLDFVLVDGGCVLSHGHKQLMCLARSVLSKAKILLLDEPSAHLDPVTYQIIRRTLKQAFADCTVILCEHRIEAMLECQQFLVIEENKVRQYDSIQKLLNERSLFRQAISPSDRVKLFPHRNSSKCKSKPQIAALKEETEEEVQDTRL

Row | Compound | CFTR modulating activity (CFTR potentiator activity) (CFTR) | Ent. Max Activity (%) [1] | EC50 (F508del in NIH 3T3 cells) [nM] | EC50 ([1]; enteroid cells, 18-24 hours incubation, acute 10 μM forskolin and 300 nM ivacaftor, read-out: Ent. EC50) [µM]
1 | C[C@@H]1CCCCC[C@](O)(C(F)(F)F)C2=NN=C(O2)c2nc(c(C(F)(F)F)cc2N)O1 [(6R,12R)-17-Amino-12-methyl-6,15-bis(trifluoromethyl)-13,19-dioxa-3,4,18-triazatricyclo[12.3.1.12,5]nonadeca-1(18),2,4,14,16-pentaen-6-ol] | confirmed |  |  | 
2 | Cc1cc(C)c(-n2nc(NS(=O)(=O)c3ccccc3)c3ccc(C(C)(C)C)nc32)c(C)c1 [Compound 33, N-[6-tert-butyl-1-(2,4,6-trimethylphenyl)pyrazolo[3,4-b]pyridin-3-yl]benzenesulfonamide] |  | + (+ is <300%) | < 1000 | 
3 | Cc1ccccc1-c1nc(NS(=O)(=O)c2cnn(C)c2)cc2oc3ccccc3c12 [Compound 79, 1-Methyl-N-[1-(o-tolyl)benzofuro[3,2-c]pyridin-3-yl]pyrazole-4-sulfonamide] |  | ++ (++ is 30-60%) |  | 3 to 30
4 | Cc1ccccc1-c1cc2oc3ccccc3c2c(NS(=O)(=O)c2cnn(C)c2)n1 [Compound 80] |  | + (+ is <300%) |  | 
